Results taken from US7473433B2, “Pulmonary delivery of polyene antifungal agents” (priority 2000, dated 2009).
Converted amounts (≈) assume the structure as drawn. Where two headings read alike, the source gives them in different places. Values belong to the molecule of their own block, whether it stands above or below them.

Key:
[1] = Solubility of polyenes and excipients in single solvents; type: physicochemical
Description: The solubility of amphotericin and excipients/additives of interest was determined in various solvents in an attempt to find a solvent system suitable for spray drying (i.e., having a sufficiently high vapor pressure) and capable of dissolving both amphotericin and any added excipients at an extent greater than about 10 mg/mL solvent. Although active agents can be spray-dried as suspensions, having the formulation components dissolved in solution provides resulting particles having a homogeneous composition (i.e., when comparing one particle to another particle)—that is to say, each particle in the composition has approximately the same composition and distribution of formulation components.
Amphotericin B is soluble in water at pHs lower than 3 and higher than 10, but only to a limited extent (0.2 mg/ml) —making the volume of solvent required for spray drying under these conditions too large to be reasonably handled. Thus, the following solubilities were experimentally determined to find a single (non-mixed) solvent system for spray drying representative amphotericin B and nystatin formulations.

[2] = type: physicochemical; conditions: for % AmB pH 3: MeOH pH 3, ice bath; for % AmB pH 4: MeOH pH 4, ice bath
Description: The “extent of degradation” of a polyene is the percentage of polyene contained in the dry powder composition determined to be chemically modified from the intact starting material, as determined by a suitable chemical assay (e.g., NMR, HPLC, etc.); 100% of the polyene remaining chemically intact during the spray drying process represents an extent of degradation of 0%.
• Amphotericin B (Spectrum, New Brunswick, N.J.; Alapharma) • Nystatin (Spectrum, New Brunswick, N.J.) • Methanol dehydrated, HPLC grade (EM Industries, Gibbstown, N.J.) • Sodium Hydroxide, 50% (J. T. Baker, Phillipsburg, N.J.) • L-Leucine (Aldrich) • Hydrochloric Acid (J. T. Baker, Phillipsburg, N.J.) • Sodium Deoxycholate (Spectrum, New Brunswick, N.J.) Methods • Reverse Phase-HPLC • RP-HPLC analysis was performed on a Waters 2690HPLC system with a Waters Detector 996 (Skywalker, Inhale No.101232). The system was equipped with either a Vydac C-18 column or an YMC ODC-AQ™ C-18 column. Samples were eluted with a gradient mobile phases consisted of 10 mM sodium acetate buffer (mobile phase A) at pH 5 and CAN (mobile phase B). The flow rate was maintained at 1.0 ml/min, the detector wavelength was 383 nm, and the injection volume was 30μL (microliter). Stability Samples
(§1) In an attempt to reduce the extent of chemical degradation of amphotericin, while also finding solution conditions under which amphotericin B was reasonably soluble (e.g., to an extent greater than about 1 mg/mL), solubility experiments were conducted. The experiments were performed at room temperature for the first 2 hour while adjusting for solution pH. After the amphotericin B was completely dissolved, the samples were transferred to a 4° C. refrigerator for further chemical stability analysis. Table 7 summarizes the formulation details and apparent solubilities at specific pH conditions.
Solutions were prepared as follows. Amphotericin B (AmB) was added to MeOH (3 mg AmB/mL) at either room temperature or in an ice bath. […] The chemical stability of AmB was determined by an HPLC assay as a function of time over 24 hours.

[3] = Apparent solubility of AmB in pH-adjusted methanol; type: physicochemical; conditions: for Solubility: 0 °C, MeOH
Description: as §1
Additional solubility of amphotericin B and stability of the representative formulation, R0140, was investigated. The solubility of amphotericin at pH 5 and at pH 4.7 was investigated; additionally, the chemical stability of amphotericin B at pH 4.8 was further examined. In these experiments, samples were placed in an ice bath during the formulation preparation.

[4] = cited from earlier work

SMILES: C[C@@H]1[C@H](O)[C@@H](C)/C=C/C=C/CC/C=C/C=C/C=C/C=C/C(O[C@H]2O[C@H](C)[C@@H](O)[C@H](N)[C@@H]2O)CC2O[C@](O)(CC(O)C(O)CCC(O)CC(O)CC(O)CC(=O)O[C@H]1C)CC(O)C2C(=O)O (stereo partly drawn) [Nystatin]
Solubility ([1]; Acetone): 0.1 mg compound/g solvent
Solubility ([1]; Chloroform): 0.7 mg compound/g solvent
Solubility ([1]; DI Water): 1.1 mg compound/g solvent
Solubility ([1]; Ethanol): 0.8 mg compound/g solvent
Solubility ([1]; Ethyl Ether): 0.1 mg compound/g solvent
Solubility ([1]; Hexane): 0.0 mg compound/g solvent
Solubility ([1]; IP Acetate): 0.1 mg compound/g solvent
Solubility ([1]; IPA): 0.1 mg compound/g solvent
Solubility ([1]; Isobutyl Alcohol): 0.5 mg compound/g solvent
Solubility ([1]; Meth. Chloride): 3.9 mg compound/g solvent
Solubility ([1]; Methanol): 11.0 mg compound/g solvent
Solubility ([1]; Pet. Ether): 0.0 mg compound/g solvent
Solubility ([1]; THF): 1.6 mg compound/g solvent

% AmB pH 3 ([2]; 4 hr): 93%
% AmB pH 3 ([2]; 18.5 hr): 90%
% AmB pH 3 ([2]; 26 hr): 85%
% AmB pH 3 ([2]; […]): 95%
% AmB pH 4 ([2]; 1 hr): 94%
% AmB pH 4 ([2]; 4 hr): 96%
% AmB pH 4 ([2]; 18.5 hr): 97%
% AmB pH 4 ([2]; 26 hr): 93%
% AmB ([2]; MeOH pH 4.8, in ice bath, 4 hr): 99%
% AmB ([2]; MeOH pH 4.8, in ice bath, 6 hr): 97%
% AmB ([2]; MeOH pH 4.8, in ice bath, 8 hr): 94%
% AmB ([2]; MeOH pH 4.8, in ice bath, 24 hr): 97%
% AmB ([2]; MeOH pH 4.8, in ice bath, […]): 97%
% AmB ([2]; MeOH pH 4.8, room temperature, 4 hr): 85%
% AmB ([2]; MeOH pH 4.8, room temperature, 6 hr): 83%
% AmB ([2]; MeOH pH 4.8, room temperature, 8 hr): 84%
% AmB ([2]; MeOH pH 4.8, room temperature, 24 hr): 78%
% AmB ([2]; MeOH pH 4.8, room temperature, […]): 89%
AmB (%) ([2]; MeOH solution, T = 8 hr (4° C. after first 2 hr)): about 92%
Main Peak % ([2]; MeOH, pH 4.8, in ice): 92.0%
AmB (%) ([2]; MeOH, pH 4.8, in ice, during formulation preparation): 97%
Solubility ([3]; pH 4.7, organic solvent or mixture, pH 4.7, in ice): 3400 µg/mL (≈ 3.68 mM)
Solubility ([3]; pH 5, organic solvent or mixture, pH 5.0, in ice): ~3000 µg/mL (≈ 3.25 mM)
solubility at 2 h ([3]; organic solvent or mixture, in MeOH, room temperature, pH of the formulation 4.4, 6.9 or 9.6): 2900 µg/mL (≈ 3.14 mM)
SMILES: C[C@@H]1[C@H](O)[C@@H](C)/C=C/C=C/C=C/C=C/C=C/C=C/C=C/[C@H](O[C@@H]2O[C@H](C)[C@@H](O)[C@H](N)[C@@H]2O)C[C@@H]2O[C@](O)(C[C@@H](O)C[C@@H](O)[C@H](O)CC[C@@H](O)C[C@@H](O)CC(=O)O[C@H]1C)C[C@H](O)[C@H]2C(=O)O [Amphotericin B]
Solubility in water ([4]; water at pH 6 to 7): insoluble
Solubility in water ([4]; water at pHs lower than 3 and higher than 10): 0.2 mg/mL (≈ 0.216 mM)
